Data taken from patent US11479538B2, “Tetrazolone-substituted dihydropyridinone MGAT2 inhibitors” (BRISTOL-MYERS SQUIBB COMPANY, priority 2014, dated 2022).

Biological target: human MGAT-2 (Homo sapiens (Human), UniProt Q3SYC2)
Test: MGAT LCMS Assay
Type: biochemical
Settings: human recombinant MGAT-2 membranes expressed in Sf9 cells; LC/MS readout of diolein; read-out: h-MGAT LCMS IC50
Experimental: The MGAT enzyme reactions were performed in Corning FALCON® 96-well polypropylene plates, in a total volume of 60 μL of 50 mM potassium phosphate buffer pH 7.4, containing a final concentration of 100 μM 2-oleoylglycerol, 15 μM oleoyl-coenzyme A and […] human or mouse MGAT-2 or […] rat recombinant MGAT-2 membranes expressed in Sf9 cells. Assay plates were run through a fully automated robotics system and shaken for 5 seconds every minute for a total 10 minutes. The reactions were then quenched with 120 μL of ice cold methanol containing 1 μg/mL 1,2-distearoyl-rac-glycerol as the internal standard. Plates were shaken for 2 minutes and spun down to remove protein precipitation. After the spin, samples were transferred to LC/MS compatible PCR plates. For LC/MS analysis, a ThermoFisher Surveyor pump, utilizing a Waters SYMMETRY® C8, 50×2.1 mm column, was used for the chromatography of enzyme products. The buffer system consists of 0.1% formic acid in water with a mobile phase consisting 0.1% formic acid in methanol. The shallow gradient is 90-100% mobile phase in 0.2 min with a total run time of 2.3 min. […]
The exemplified Examples disclosed below were tested in the MGAT2 in vitro assays described above and were found having MGAT2 inhibitory activity. Table 1 below lists human MGAT2 IC50 values measured for the following examples.

Chain of human MGAT-2 (Q3SYC2 whole entry): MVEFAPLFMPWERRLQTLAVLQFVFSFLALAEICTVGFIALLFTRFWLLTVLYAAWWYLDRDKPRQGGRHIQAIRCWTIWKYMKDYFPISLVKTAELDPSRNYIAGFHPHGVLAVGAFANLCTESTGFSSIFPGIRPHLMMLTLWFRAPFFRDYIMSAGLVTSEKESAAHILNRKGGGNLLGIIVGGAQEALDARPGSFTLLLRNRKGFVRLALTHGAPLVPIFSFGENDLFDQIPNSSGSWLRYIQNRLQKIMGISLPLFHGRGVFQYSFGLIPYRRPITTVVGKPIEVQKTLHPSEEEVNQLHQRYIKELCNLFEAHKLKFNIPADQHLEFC

With `O=C1N[C@@](c2ccc(OCCCC(F)(F)F)cc2F)(C(F)(F)F)CC(c2ncc(C3CC3)s2)=C1n1nn[nH]c1=O` [Example 22, (S)-4-(5-cyclopropylthiazol-2-yl)-6-(2-fluoro-4-(4,4,4-trifluorobutoxy)phenyl)-3-(5-oxo-4,5-dihydro-1H-tetrazol-1-yl)-6-(trifluoromethyl)-5,6-dihydropyridin-2(1H)-one] as the molecule, how does the IC50 read?
The IC50 was 2 nM.
